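Test compounds were applied to cells in 96-well plates for 48 hours at 5 doses. GI50 = concentration required for 50% inhibition of growth. The concentration for full growth arrest is given as TGI.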 Some results are limits rather than exact numbers.

Holding throughout (experiment): growth of human tumour cells (NCI), 48 h
Assay [1] deals with ACHN renal.
Assay [2] has as its system EKVX NSCLC.
For assay [3], the system named is HT29 colon.
Assay [4] concerns K-562 leukemia.
Assay [5] relates to LOX IMVI melanoma.
Assay [6] concerns OVCAR-8 ovarian.
Assay [7] relates to SN12C renal.
Assay [8] has as its system SNB-19 CNS.
Assay [9] deals with U251 CNS.
Assay [10] has as its system UACC-62 melanoma.

Take `Cc1cc(Cl)ccc1OCC(=O)Nc1nc(N)nc(N)n1`: the TGI in assay [1], in assay [2], in assay [3], in assay [4], in [5] and in assay [6] was over 100 µM throughout. In addition, the TGI in [7], in assay [8], in [9] and in assay [10] was over 100 µM each time.

In the case of `O=C(C#Cc1ccccc1)N1c2ccccc2CC1c1c[nH]c2ccccc12` (stereo not given), the TGI turned out to be 66 µM in assay [1]; 42.1 µM in [2]; 40.6 µM in assay [3]; 49 µM in assay [4]; 19.7 µM in assay [5]; 27.5 µM in [6]. In addition, the TGI was 26.9 µM in assay [7], over 100 µM in [8], 35.8 µM in assay [9] and 22.8 µM in assay [10].

`O=C1C(=O)N(c2ccc(Cl)cc2)C(=O)C(=O)C1c1nc2ccccc2s1`: the TGI in assay [1], in assay [2], in [3], in [4], in [5] and in [6] was over 100 µM throughout. Moreover, the TGI in assay [7], in assay [8], in [9] and in assay [10] was over 100 µM each time.

With `Cc1ncc(C(=O)Nc2ccc(CN3CCN(C)CC3)c(C(F)(F)F)c2)cc1C#Cc1ccc(N)nc1`, the GI50 is 0.117 µM in assay [1]; 0.504 µM in assay [2]; 129 nM in [3]; 3.33 nM in [4]; 131 nM in assay [5]; 0.489 µM in assay [6]. Besides, the GI50 is 0.135 µM in [7], 1.22 µM in [8], 0.483 µM in assay [9] and 153 nM in assay [10]. The TGI in assay [1] was determined as 0.995 µM; in assay [2] it was 3.85 µM; in assay [3], 1.16 µM; in assay [4], 24.5 µM; in [5], 0.496 µM; in assay [6] it was 5.03 µM. Besides, the TGI in assay [7] turned out to be 2.25 µM; in assay [8], 5.06 µM; in assay [9], 4.95 µM; in [10] it was 0.854 µM.

For the compound `CCOc1ccc2c(c1)C(=O)c1c-2n(CCCBr)c(=O)c2cc([N+](=O)[O-])ccc12`, the GI50 was 3.76 µM in [1]; 86.1 µM in assay [2]; over 100000 nM in assay [3]; 50900 nM in assay [4]; 5380 nM in [5]; 4.8 µM in assay [6]. Besides, the GI50 in assay [7] was 11.9 µM; in [8], 4.75 µM; in assay [9] it was 6.13 µM; in assay [10], 5730 nM. The TGI in assay [1] is 69.7 µM; in [2], over 100 µM; in assay [3] it was over 100 µM; in assay [4], over 100 µM; in [5] it was over 100 µM; in [6], over 100 µM. The TGI in assay [7], in assay [8], in assay [9] and in [10] was over 100 µM each time.

Regarding `COC(=O)C12CC(NC(=O)c3csc([C@@H](C[C@H](C(C)C)N(C)C(=O)[C@@H](NC(=O)[C@H]4CCCCN4C)C4CC4)OC(C)=O)n3)(C1)C2`, the GI50 is 0.123 µM in assay [1]; 0.0696 µM in assay [2]; 13.4 nM in [3]; 5.49 nM in [4]; 14.4 nM in assay [5]; 0.0501 µM in assay [6]. For the same compound, the GI50 in assay [7] is 0.0207 µM; in assay [8] it was 0.0581 µM; in assay [9], 0.0474 µM; in assay [10], 15.3 nM. The TGI in assay [1], in assay [2], in [3], in assay [4], in assay [5] and in [6] was over 16.7 µM each time. For the same compound, the TGI in assay [7], in assay [8], in [9] and in assay [10] was over 16.7 µM each time.

Turning to `CCOc1ccc(/C(C=O)=C(\Cl)c2ccc(OC)cc2)cc1`, the TGI in assay [1], in assay [2], in assay [3], in [4], in [5] and in assay [6] was over 100 µM in each case. Moreover, the TGI in [7], in assay [8], in assay [9] and in [10] was over 100 µM in each case.

As to `O=c1c2cc(-c3ccccc3)sc2ncn1Cc1ccc(Cl)c(Cl)c1`, the GI50 in [1] is 22.7 µM; in [2] it was 16.3 µM; in assay [3], 67700 nM; in assay [4] it was 20700 nM; in assay [5], 51900 nM; in [6] it was 18.6 µM. The GI50 in assay [7] was 13.1 µM; in assay [8], 26.8 µM; in assay [9], 15.5 µM; in assay [10], 13000 nM. Further, the TGI is 75.6 µM in assay [1]; over 100 µM in [2]; over 100 µM in assay [3]; over 100 µM in [4]; over 100 µM in [5]; over 100 µM in [6]. In addition, the TGI is 39.1 µM in assay [7], over 100 µM in [8], 38.6 µM in assay [9] and 28 µM in [10].

Consider `c1cc(-c2nnc(SSc3ncnc4nc[nH]c34)o2)ccn1`, for which the GI50 was 4.07 µM in assay [1]; 24.4 µM in [2]; 2420 nM in assay [3]; 351 nM in assay [4]; 297 nM in assay [5]; 3.26 µM in assay [6]. Besides, the GI50 in assay [7] was 6.6 µM; in [8], 78.4 µM; in [9], 7.22 µM; in assay [10] it was 2020 nM. For the same compound, the TGI in [1] is over 100 µM; in [2], over 100 µM; in assay [3], over 100 µM; in assay [4] it was over 100 µM; in assay [5], 17.3 µM; in [6], over 100 µM. The TGI in [7], in assay [8], in [9] and in assay [10] was over 100 µM throughout.

As for `COC(=O)C1=C(CS(=O)c2ccc([N+](=O)[O-])cc2[N+](=O)[O-])C2C=CC1C2` (stereo not given), the TGI in assay [1] is 39.5 µM; in assay [2], over 100 µM; in assay [3], 35.2 µM; in assay [4] it was 52.5 µM; in assay [5], 30.8 µM; in assay [6], 80.9 µM. For the same compound, the TGI was 50.2 µM in assay [7], over 100 µM in assay [8], 49.4 µM in assay [9] and 42.2 µM in assay [10].

Regarding `[O-][N+]1(CC[N+]2([O-])CCCCC2)CCCCC1`, the TGI in [1], in [2], in [3], in assay [4], in assay [5] and in [6] was over 100 µM in each case. In addition, the TGI in [7], in [8], in assay [9] and in [10] was over 100 µM throughout.
